# From patent US20080267948A1, “Croos-B Structure Binding Compounds” (priority 2005, published 2008)
# “Also recorded” adds a separate entry of the source.
# What was measured:
# [1] = biological target: T1, factor XII (Homo sapiens, UniProt P00748); assay: Factor XII activation assay (chromogenic, prekallikrein, Chromozyme-PK); type: biochemical; parameters: purchased Calbiochem; conditions: for activation of factor XII by compound alone: without protein cofactor, ellagic acid 50 μg/ml
# T1 sequence (P00748 20-615): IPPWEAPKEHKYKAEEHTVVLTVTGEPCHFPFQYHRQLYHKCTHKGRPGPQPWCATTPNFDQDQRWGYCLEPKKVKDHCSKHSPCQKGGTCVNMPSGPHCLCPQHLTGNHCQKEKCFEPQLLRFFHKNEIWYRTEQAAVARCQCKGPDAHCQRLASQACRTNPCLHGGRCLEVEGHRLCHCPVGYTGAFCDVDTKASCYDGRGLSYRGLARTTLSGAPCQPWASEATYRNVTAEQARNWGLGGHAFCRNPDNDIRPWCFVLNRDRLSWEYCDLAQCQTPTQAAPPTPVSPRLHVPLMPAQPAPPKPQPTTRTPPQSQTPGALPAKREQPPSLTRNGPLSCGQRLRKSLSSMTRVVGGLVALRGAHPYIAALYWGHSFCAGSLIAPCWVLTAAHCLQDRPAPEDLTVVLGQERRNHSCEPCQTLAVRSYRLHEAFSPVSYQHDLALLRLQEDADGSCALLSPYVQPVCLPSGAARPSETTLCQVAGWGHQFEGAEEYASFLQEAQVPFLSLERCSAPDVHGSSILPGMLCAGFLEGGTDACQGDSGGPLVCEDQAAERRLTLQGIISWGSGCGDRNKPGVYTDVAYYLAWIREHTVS
# Protocol: For this purpose, in a reaction volume of 60 μl the following components were mixed: 10 μl of 300 μg/ml ellagic acid solution or control buffer, 10 μl of 750 μg/ml I or control buffer, 20 μl of a solution comprising [HEPES-buffered saline, 1.96 μg/ml prekallikrein (Calbiochem), 10 mM ZnCl2, 2.13 μg/ml high molecular weight kininogen (Calbiochem); ‘PK mix’ ], 10 μl Chromozyme-PK (Roche, 1 mg/ml aliquot) and 10 μl of a solution comprising 1 mM ZnCl2, HEPES-buffered saline and 4.76 μg/ml factor XII (Calbiochem); ‘FXII mix’. Nunc Immobilizer plates were blocked with PBS with 1% Tween20 for 1 hour at room temperature under constant motion. All reagents were kept on ice throughout preparation of the experiment. The factor XII activating capacity of ellagic acid (Sigma, E-2250, St. Louis, Mo., USA) or I (Cealb, Sanquin, Amsterdam, The Netherlands) alone, and combination thereof was determined in duplicate. After adding 10 μL of I solution or buffer and 10 μl of ellagic acid solution or buffer to the wells, 20 μL of PK mix was added to each well. Ten μL of kallikrein substrate Chromozyme PK was added to each well, followed by 10 μL of freshly prepared FXII mix. Final I and ellagic acid concentrations are 125 μg/ml and 50 μg/ml. Absorbance was measured at 405 nm at 37° C. for 3 hours with brief shaking every minute.
# [2] = system: human blood platelets; assay: Platelet aggregation (aggregometric assay with washed platelets); type: cell-based; conditions: for platelet aggregation by compound alone: 25 or 50 μg/ml ellagic acid, hydrate
# Protocol: The influence of amyloid-β(1-40) E22Q Dutch type (Aβ) peptide aggregates with cross-β structure conformation on blood platelet aggregation was tested with washed platelets in an aggregometric assay. Freshly drawn human aspirin free blood was mixed gently with citrate buffer to avoid coagulation. Blood was spinned for 15′ at 150*g at 20° C. and supernatant was collected; platelet rich plasma (PRP). […] After spinning down the platelets upon centrifugation for 15′ at 330*g at 20° C., the pellet was resuspended in HEPES-Tyrode buffer pH 6.5. Prostacyclin was added to a final concentration of 10 ng/ml, and the solution was centrifuged for 15′ at 330*g at 20° C., with a soft brake. The pellet was resuspended in HEPES-Tyrode buffer pH 7.2 in a way that the final platelet number was adjusted to 200,000/μl. Platelets were kept at 37° C. for at least 30′, before use in the assays, to ensure that they were in the resting state.
# Aggregation of platelets was monitored in an aggregometer (Chrono-Log Corporation, Havertown, Pa., USA) for 15 minutes at 37° C. with a magnet stirring speed of 900 rpm. First, 270 μl of platelet solution was pipetted in the cuvettes and after 1 minute of stirring, 30 μl of preincubated (5 minutes, RT) Aβ and Hematein solution or control was added. The hematein stock was 10 mg/ml in HEPES-Tyrode buffer. The Aβ stock was 1 mg/ml. For blank readings unstirred HEPES Tyrode buffer was used. The aggregation is expressed as the percentage of the light transmission (0-100%). As a positive control, synthetic thrombin receptor activating peptide (TRAP) induced platelet aggregation was used. A control experiment was performed to study the influence of the red colour of hematein on the light transmission. For this, 4 μM TRAP was added at time 1 minute to the platelets, then hematein was added after 6 minutes of aggregation. The platelets were used for not more than 4 hours after isolation to reduce variations in sensitivity amongst subsequent measurements.
# Ellagic acid was first dissolved to 100 mg/ml in DMSO, and then further diluted to 1 mg/ml in HBS buffer. Final concentrations of Aβ and ellagic acid in the aggregation assay were 50 μg/ml and 25/50 μg/ml, respectively. In addition, the influence of ellagic acid alone on platelet aggregation was tested. As a control, the influence of 0.08% DMSO on 50 μg/ml Aβ-induced platelet aggregation was analyzed. The 100% DMSO of the ellagic acid stock was diluted 2000 and 4000×, resulting in […] final DMSO concentrations in the aggregation assay.
compound,measurement,setting,value
"O=c1oc2c(O)c(O)cc3c(=O)oc4c(O)c(O)cc1c4c23 [compound 117, Ellagic acid hydrate]","activation of factor XII/kallikrein generation, compound combined with human serum albumin","[1]; 50 μg/ml ellagic acid with 125 μg/ml HSA, hydrate",potent activator of kallikrein generation; also recorded: kallikrein substrate Chromozyme-PK conversion is only observed when in addition 125 μg/ml HSA is included in the assay
same,Activation of factor XII (summary),[1]; summary Table 9,Activation of factor XII
same,activation of factor XII by compound alone,"[1]; listed as Ellagic acid, hydrate",factor XII/kallikrein activity comparable to control buffer
same,activation of factor XII by compound alone,"[1]; listed as ellagic acid, hydrate",poor activators of factor XII
same,influence on Aβ induced platelet aggregation,"[2]; 25 and 50 μg/ml ellagic acid hydrate, 100 μg/ml Aβ",further enhances amyloid-β triggered aggregation
same,platelet aggregation by compound alone,[2]; listed as ellagic acid hydrate,potent activator of platelets resulting in their aggregation; also recorded: Stimulation of platelet aggregation
same,platelet aggregation by compound alone,[2]; listed as ellagic acid,strong inducer of aggregation
